Converted amounts (≈) assume the structure as drawn. Read-outs that look alike come from different tables or passages of the source.
Legend:
[1] = test system: Salmonella typhimurium (ATCC 19585); assay: Minimum inhibitory concentration, broth dilution method; assay type: cell-based; settings: Salmonella enterica, read-out: MIC S. typhimurium G−
Protocol: (§1) The microorganisms used were Staphylococcus aureus (ATCC 25923), Proteus mirabilis (ATCC 12453) Enterococcus faecalis (ATCC 29212), Escherichia coli (ATCC 25922), Salmonella typhimurium (ATCC 19585), and Klebsiella pneumoniae (ATCC 700603).
(§2) The antimicrobial activity of the phenylaminonaphthoquinones 1–12 was determined by the broth dilution method. The following concentrations were tested: 200, 100, 50, 25, and 12.5 μg/mL. After incubation, the microbial growth was examined. The results are expressed in minimum inhibitory concentration (MIC), the lowest concentration of phenylaminonaphthoquinones with no visible growth. The bactericidal/bacteriostatic activity was determined by sub-cultivation of the samples in normal culture media at appropriate temperatures and incubation times. The MIC of each compound was performed in triplicate. The compounds 1–12 were dissolved in DMSO. Cefazolin and cefotaxime were used as positive controls at the same compound concentrations.

[2] = test system: Proteus mirabilis (ATCC 12453); assay: as above; assay type: cell-based
Protocol: as §1, §2

[3] = test system: Enterococcus faecalis (ATCC 29212); assay: as above; assay type: cell-based
Protocol: as §1, §2

[4] = test system: Klebsiella pneumoniae (ATCC 700603); assay: as above; assay type: cell-based
Protocol: as §1, §2

[5] = test system: Escherichia coli (ATCC 25922); assay: as above; assay type: cell-based
Protocol: as §1, §2

[6] = test system: Staphylococcus aureus (ATCC 25923); assay: as above; assay type: cell-based; settings: for MIC: Staphylococcus aureus; for MIC S. aureus G+: broth dilution
Protocol: as §1, §2

[7] = Experimental log P, shake-flask method n-octanol/water; assay type: physicochemical; settings: 25 ± 1 °C
Protocol: The mixture was then allowed to stand for 24 h at the same temperature for further phase separation. A stock solution with a concentration of 0.01 mol per liter in water, pre-saturated with n-octanol, was prepared for each compound. Duplicate test vessels containing a mixture of the stock solution and n-octanol (pre-saturated with water) were shaken on a vortex shaker for 5 min. Phase separation was achieved by centrifugation of the vessels for 3 min at 4000× g (25 ± 1 °C), and the concentration of the solute in the water phase (C water) was measured from their absorbance at 205 nm using a UV spectrophotometer. The partition coefficient was calculated using the following equation. Log Po/w = Log(C n-octanol/C water)
All the measurements were carried out at room temperature (25 ± 1 °C). In order to check the performance of the method, aniline was used as a reference substance.

[8] = test system: Plasmodium falciparum 3D7 (chloroquine-sensitive); assay: In vitro antiplasmodial screening, parasitemia by flow cytometry; assay type: cell-based; design: Plasmodium falciparum 3D7 Growth Inhibition (%): concentration or dose not given beside the values; settings: for Plasmodium falciparum 3D7 Growth Inhibition (%): mean ± SD; for IC50: Plasmodium falciparum, read-out: Plasmodium falciparum 3D7 IC50
Protocol: (§3) The antimalarial activity assay was performed using Plasmodium falciparum 3D7 (chloroquine-sensitive) and FCR-3 (chloroquine-resistant) reference strains, which were cultured in vitro following the method described by Trager et al. with some modifications.
(§4) The experiments were performed in 96-well culture plates, where the stock solutions of compounds 1–12 (1, 0.1, 0.01, and 0.001 µg/mL) were tested. A total of 100 µL of each product was distributed in triplicate on the culture plates, and 100 µL of a red blood cell suspension (4% hematocrit, final parasitemia of 1% ring stage) was added, resulting in a final volume of 200 µL. The test plates were incubated at 37 °C for 48 h, and parasitemia was determined by flow cytometry (BDFACScalibur). Erythrocytes were taken from each well culture plate, and 100 µL of ethidium bromide (10 µg/mL) was added and incubated for 30 min. A total of 100,000 cells per well culture plate were acquired and analyzed. The IC50 of the pure products was determined by a regression curve of the percentage inhibition of parasite activity as a function of the logarithmic dose. Chloroquine diphosphate was used as the reference drug.

[9] = test system: Plasmodium falciparum FCR-3 (chloroquine-resistant); assay: as above; assay type: cell-based; design: Plasmodium falciparum FCR-3 Growth Inhibition (%): concentration or dose not given beside the values; settings: for Plasmodium falciparum FCR-3 Growth Inhibition (%): mean ± SD; for IC50: Plasmodium falciparum, read-out: Plasmodium falciparum FCR-3 IC50
Protocol: as §3, §4

P. falciparum 3D7 = test system: P. falciparum 3D7; design: method as in PMID 33333397; settings: literature compounds of Figure 2; read-out: IC50 against the 3D7 strain; cited from earlier work
[10] = ATCC12453, broth dilution, triplicate, read-out: MIC P. mirabilis G+
[11] = ATCC29212, broth dilution, triplicate, read-out: MIC E. faecalis G+
[12] = ATCC700603, broth dilution, triplicate, read-out: MIC K. pneumonia G−
[13] = ATCC25922, broth dilution, triplicate, read-out: MIC E. coli G−
[14] = ATCC25923, broth dilution, triplicate, read-out: MIC S. aureus G+
[15] = 3D7 chloroquine-sensitive, 48 h
[16] = FCR-3 chloroquine-resistant, 48 h
[17] = FCR3, FCR-3 chloroquine-resistant, 48 h

| Compound | MIC ([1]; broth dilution, triplicate) | MIC [2, 10] | MIC [3, 11] | MIC [4, 12] | MIC [5, 13] | MIC [6, 14] | MIC S. aureus G+ ([6]; triplicate) | logP [7] | Plasmodium falciparum 3D7 Growth Inhibition (%) [8, 15] | Plasmodium falciparum FCR-3 Growth Inhibition (%) [9, 16] | IC50 [8, 15] | IC50 [9, 17] | also measured |
| --- | --- | --- | --- | --- | --- | --- | --- | --- | --- | --- | --- | --- | --- |
| Cc1nnc(SCC2=C(C(=O)O)N3C(=O)[C@@H](NC(=O)Cn4cnnn4)[C@H]3SC2)s1 [CFZ, cefazolin, reference compound] | 7.1 mg/L (≈ 15.6 µM) | 5.6 mg/L (≈ 12.3 µM) | 8.4 mg/L (≈ 18.5 µM) | 8.5 mg/L (≈ 18.7 µM) | > 50 mg/L | 4.2 mg/L (≈ 9.24 µM) | – | – | – | – | – | – | – |
| O=C1C=C(Nc2ccc(O)cc2)C(=O)c2ccccc21 [Compound 5] | – | – | – | – | – | – | 3.2 mg/L (≈ 12.1 µM) | 1.17 ± 0.81 | 18.0 ± 1.0% | 61.0 ± 2.0% | – | – | MIC [1]: > 50 mg/L; MIC ([2]; ATCC12453, read-out: MIC P. mirabilis G+): 24.8 mg/L (≈ 93.5 µM); MIC ([3]; ATCC29212, read-out: MIC E. faecalis G+): > 50 mg/L; MIC ([4]; ATCC700603, read-out: MIC K. pneumonia G−): > 50 mg/L; MIC ([5]; ATCC25922, read-out: MIC E. coli G−): > 50 mg/L; MIC ([6]; ATCC25923, read-out: MIC S. aureus G+, broth dilution, triplicate): 3.2 to 5.7 mg/L (≈ 12.1 to 21.5 µM); IC50 ([8]; 3D7, 48 h): > 1 mg/L; IC50 ([9]; FCR3, 48 h): 0.78 mg/L (≈ 2.94 µM) |
| COc1ccc(NC2=C(Cl)C(=O)c3ccccc3C2=O)cc1 [Compound 8] | 49.9 mg/L (≈ 159 µM) | 52.6 mg/L (≈ 168 µM) | 40.1 mg/L (≈ 128 µM) | 49.1 mg/L (≈ 156 µM) | > 50 mg/L | 21.9 mg/L (≈ 69.8 µM) | – | 1.81 ± 1.04 | 26.0 ± 2.0% | 34.0 ± 2.0% | > 1 mg/L | > 1 mg/L | – |
| CCN(CC)CCCC(C)Nc1ccnc2cc(Cl)ccc12 (stereo not shown) [CQ, chloroquine, reference compound] | – | – | – | – | – | – | – | – | – | – | – | – | Plasmodium falciparum 3D7 IC50 [8, 15]: 0.06 mg/L; IC50 ([9]; FCR3, 48 h): 0.33 mg/L (≈ 1.03 µM) |
| NC1=CC(=O)c2ccccc2C1=O [Compound 2-amino] | – | – | – | – | – | – | – | – | – | – | – | – | IC50 (P. falciparum 3D7): 5.14 µM |
| Cc1ccccc1NC1=C(Cl)C(=O)c2ccccc2C1=O [Compound 4] | 32.5 mg/L (≈ 109 µM) | 40.9 mg/L (≈ 137 µM) | 37.1 mg/L (≈ 125 µM) | 44.6 mg/L (≈ 150 µM) | > 50 mg/L | > 50 mg/L | – | 2.2 ± 0.13 | 42.0 ± 2.0% | 56.0 ± 1.0% | > 1 mg/L | 0.86 mg/L (≈ 2.89 µM) | – |
| O=C1C=C(Nc2ccccc2)C(=O)c2ccccc21 [Compound 1, 2-phenylamino-1,4-naphthoquinone] | 38.8 mg/L (≈ 156 µM) | 40 mg/L (≈ 160 µM) | 49.9 mg/L (≈ 200 µM) | > 50 mg/L | 26.3 mg/L (≈ 106 µM) | 3.2 to 5.7 mg/L (≈ 12.8 to 22.9 µM) | 3.9 mg/L (≈ 15.6 µM) | 1.42 ± 0.21 | 58.0 ± 3.0% | 65.0 ± 1.0% | 0.16 mg/L (≈ 0.642 µM) | 0.74 mg/L (≈ 2.97 µM) | – |
| CN(C1=CC(=O)c2ccccc2C1=O)c1ccccc1 [Compound 11] | > 50 mg/L | 44 mg/L (≈ 167 µM) | 30.2 mg/L (≈ 115 µM) | > 50 mg/L | > 50 mg/L | 3.2 to 5.7 mg/L (≈ 12.2 to 21.6 µM) | 5.5 mg/L (≈ 20.9 µM) | 2.31 ± 0.3 | 26.0 ± 8.0% | 72.0 ± 2.0% | > 1 mg/L | 0.55 mg/L (≈ 2.09 µM) | – |

Source: publication PMC11870044, “Exploring the Antibacterial and Antiparasitic Activity of Phenylaminonaphthoquinones—Green Synthesis, Biological Evaluation and Computational Study” (International Journal of Molecular Sciences, 2024)
